Results on two molecules are retold here after ChEMBL document CHEMBL4321836, “Discovery of BAY-298 and BAY-899: Tetrahydro-1,6-naphthyridine-Based, Potent, and Selective Antagonists of the Luteinizing Hormone Receptor Which Reduce Sex Hormone Levels in Vivo” (J Med Chem, 2019).

A value given as a limit tells only on which side of the number the result lay.

The target of series [1] is Lutropin-choriogonadotropic hormone receptor (Rattus norvegicus, UniProt P16235). In words: Antagonist activity at rat luteinizing hormone receptor expressed in rat ovary granulosa GLHR15 cell suspension assessed as reduction in agonist-induced cAMP production preincubated for 30 mins followed by agonist solution addition after 30 mins by cell based TR-FRET assay. Format: functional.

Another series deals with Thyrotropin receptor (Homo sapiens, UniProt P16473). In words: Antagonist activity at human thyroid stimulating hormone receptor expressed in rat HTC133 cells assessed as reduction in agonist-induced cAMP production preincubated for 20 mins followed by agonist solution addition and measured after 60 mins by cell based TR-FRET assay. Format: functional.
A short description of series [2]: Lipophilicity, logD of the compound at pH 7.5 by reversed-phase HPLC. Conditions: buffer. Format: physicochemical.
Series [3] is described as follows: Clearance in human liver microsomes at 1 uM measured after 2 to 60 mins in presence of glucose-6-phosphate by LC-MS/MS analysis. Format: ADME, Microsome.
Series [4] addresses Voltage-gated inwardly rectifying potassium channel KCNH2 (Homo sapiens, UniProt Q12809). In words: Inhibition of human ERG expressed in HEK293 cells at holding potential -80 mV by whole-cell voltage-clamp method. Format: cell-based.
The nature of series [5]: Efflux ratio of apparent permeability from basolateral to apical over apical to basolateral side in human Caco2 cells at 2 uM after 2 hrs by LC-MS/MS analysis. Conditions: Caco-2. Format: ADME, cell-based.
The target in the next series is Cytochrome P450 1A2 (Homo sapiens, UniProt P05177). In words: Inhibition of CYP1A2 in human liver microsomes using phenacetin as substrate by LC-MS/MS analysis. Format: ADME.
The target of a further series is Cytochrome P450 3A4 (Homo sapiens, UniProt P08684). Briefly: Inhibition of CYP3A4 in human liver microsomes using midazolam as substrate by LC-MS/MS analysis. Format: ADME.
Series [6] in a line: Dose normalized Cmax in Wistar rat at 0.5 mg/kg, iv after 2 to 72 hrs by LC-MS/MS analysis. Format: ADME, organism-based. Conditions: in vivo.
Series [7] deals with T1, Adenosine receptor A3 (Homo sapiens) (UniProt P0DMS8).
T1 sequence (whole entry): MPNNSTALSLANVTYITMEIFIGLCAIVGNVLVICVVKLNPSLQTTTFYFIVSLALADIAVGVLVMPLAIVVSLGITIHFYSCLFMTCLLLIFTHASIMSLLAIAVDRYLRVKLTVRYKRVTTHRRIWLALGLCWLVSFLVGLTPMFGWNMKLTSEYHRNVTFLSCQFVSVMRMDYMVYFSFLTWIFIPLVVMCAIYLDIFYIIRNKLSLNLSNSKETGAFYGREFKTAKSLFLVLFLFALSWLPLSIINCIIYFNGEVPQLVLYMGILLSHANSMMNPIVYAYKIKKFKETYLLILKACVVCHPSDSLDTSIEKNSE
In words: Agonist activity at human A3 receptor expressed in CHO-K1 cells at 10 uM after 20 mins by HTRF assay relative to control. Format: cell-based.

In series [8] the target is T2, Alpha-1A adrenergic receptor (Homo sapiens) (UniProt P35348).
T2 sequence (whole entry): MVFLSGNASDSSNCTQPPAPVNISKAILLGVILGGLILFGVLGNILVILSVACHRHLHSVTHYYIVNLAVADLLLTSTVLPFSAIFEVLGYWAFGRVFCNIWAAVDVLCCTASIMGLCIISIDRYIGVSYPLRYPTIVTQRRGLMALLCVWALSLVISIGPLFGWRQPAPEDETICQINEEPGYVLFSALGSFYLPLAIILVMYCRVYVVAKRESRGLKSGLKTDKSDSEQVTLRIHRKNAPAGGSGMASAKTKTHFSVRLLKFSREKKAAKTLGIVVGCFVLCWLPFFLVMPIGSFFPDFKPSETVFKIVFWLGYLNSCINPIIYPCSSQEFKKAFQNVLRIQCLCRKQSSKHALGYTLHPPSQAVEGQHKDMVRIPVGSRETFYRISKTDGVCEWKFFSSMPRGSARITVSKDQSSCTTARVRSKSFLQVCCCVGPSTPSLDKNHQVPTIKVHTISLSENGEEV
In words: Antagonist activity at human alpha1A adrenergic receptor expressed in CHO-K1 cells at 10 uM by fluorimetric method relative to control. Format: cell-based. Also noted: scale not given: the % may be the effect or the level left.

Series [9] concerns the target D(1A) dopamine receptor (Homo sapiens) (UniProt P21728). Briefly: Agonist activity at human D1 receptor expressed in CHO-K1 cells at 10 uM after 30 mins HTRF assay relative to control. Format: cell-based.
The target is the same in series [10]. In words: Antagonist activity at human D1 receptor expressed in CHO-K1 cells at 10 uM after 30 mins HTRF assay relative to control. Format: cell-based. Also noted: scale not given: the % may be the effect or the level left.
For series [11], the target named is Motilin receptor (Homo sapiens) (UniProt O43193). Briefly: Antagonist activity at human Motilin receptor expressed in CHO-K1 cells at 10 uM by fluorimetric method relative to control. Format: cell-based. Also noted: scale not given: the % may be the effect or the level left.
In series [12] the target is T3, Muscarinic acetylcholine receptor M1 (Homo sapiens) (UniProt P11229).
T3 sequence (whole entry): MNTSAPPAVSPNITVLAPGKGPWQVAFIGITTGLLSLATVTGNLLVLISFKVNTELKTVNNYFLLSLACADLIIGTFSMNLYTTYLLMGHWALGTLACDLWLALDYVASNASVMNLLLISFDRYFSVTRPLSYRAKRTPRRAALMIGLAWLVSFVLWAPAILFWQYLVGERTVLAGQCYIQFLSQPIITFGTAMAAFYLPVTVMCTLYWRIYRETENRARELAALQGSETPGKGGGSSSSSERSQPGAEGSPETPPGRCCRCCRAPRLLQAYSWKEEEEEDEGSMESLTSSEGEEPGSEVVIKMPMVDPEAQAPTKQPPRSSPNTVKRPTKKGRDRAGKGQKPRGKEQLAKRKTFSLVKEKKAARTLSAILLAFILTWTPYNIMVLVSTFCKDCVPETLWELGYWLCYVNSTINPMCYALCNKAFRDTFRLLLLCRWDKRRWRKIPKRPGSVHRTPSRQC
In words: Antagonist activity at human muscarinic M1 receptor expressed in CHO-K1 cells at 10 uM by fluorimetric method relative to control. Format: cell-based. Also noted: scale not given: the % may be the effect or the level left.

Series [13] deals with Substance-P receptor (Homo sapiens) (UniProt P25103). In words: Antagonist activity at human NK1 receptor expressed in U373 MG cells at 10 uM by fluorimetric method relative to control. Format: cell-based. The arrangement: scale not given: the % may be the effect or the level left. Conditions: U-373MG ATCC.
Series [14] addresses Mu-type opioid receptor (Homo sapiens) (UniProt P35372). Briefly: Agonist activity at human mu opioid receptor expressed in CHO-K1 cells at 10 uM after 10 mins by HTRF assay relative to control. Format: cell-based.
Series [15] can be described thus: Plasma concentration in female rat at 12.5 mg/kg, po administered once daily for 8 days and measured on day 8. Format: ADME, organism-based.
Series [16] in a line: Toxicity in female rat assessed as effect on animal activity. Conditions: in vivo.

D(1A) dopamine receptor (Homo sapiens), sequence (P21728 whole entry): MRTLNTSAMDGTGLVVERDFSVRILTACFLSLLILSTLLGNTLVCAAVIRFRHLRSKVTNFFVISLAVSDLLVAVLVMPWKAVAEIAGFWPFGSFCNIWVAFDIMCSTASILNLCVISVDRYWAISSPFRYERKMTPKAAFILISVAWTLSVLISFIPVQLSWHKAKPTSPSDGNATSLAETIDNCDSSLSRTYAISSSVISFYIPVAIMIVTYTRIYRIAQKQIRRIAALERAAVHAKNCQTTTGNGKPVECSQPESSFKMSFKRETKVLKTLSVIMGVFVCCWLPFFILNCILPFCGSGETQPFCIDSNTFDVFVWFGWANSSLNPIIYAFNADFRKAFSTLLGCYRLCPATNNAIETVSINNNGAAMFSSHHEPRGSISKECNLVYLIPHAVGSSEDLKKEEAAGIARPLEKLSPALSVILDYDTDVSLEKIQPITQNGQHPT
Cytochrome P450 3A4, sequence (P08684 whole entry): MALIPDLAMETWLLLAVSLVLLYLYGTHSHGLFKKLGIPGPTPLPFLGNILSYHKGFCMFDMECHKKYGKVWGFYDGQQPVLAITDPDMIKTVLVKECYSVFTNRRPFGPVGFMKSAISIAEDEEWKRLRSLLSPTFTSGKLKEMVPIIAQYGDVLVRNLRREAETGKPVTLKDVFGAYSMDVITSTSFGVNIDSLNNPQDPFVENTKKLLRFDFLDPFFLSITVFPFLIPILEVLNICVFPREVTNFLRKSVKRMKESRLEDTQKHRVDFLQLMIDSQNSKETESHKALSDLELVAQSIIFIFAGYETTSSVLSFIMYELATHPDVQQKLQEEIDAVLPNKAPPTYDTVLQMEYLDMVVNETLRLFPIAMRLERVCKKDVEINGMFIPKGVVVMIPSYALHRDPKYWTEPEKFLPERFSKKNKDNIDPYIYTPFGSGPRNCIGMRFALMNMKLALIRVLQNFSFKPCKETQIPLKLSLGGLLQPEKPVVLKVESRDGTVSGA
Motilin receptor (Homo sapiens), sequence (O43193 whole entry): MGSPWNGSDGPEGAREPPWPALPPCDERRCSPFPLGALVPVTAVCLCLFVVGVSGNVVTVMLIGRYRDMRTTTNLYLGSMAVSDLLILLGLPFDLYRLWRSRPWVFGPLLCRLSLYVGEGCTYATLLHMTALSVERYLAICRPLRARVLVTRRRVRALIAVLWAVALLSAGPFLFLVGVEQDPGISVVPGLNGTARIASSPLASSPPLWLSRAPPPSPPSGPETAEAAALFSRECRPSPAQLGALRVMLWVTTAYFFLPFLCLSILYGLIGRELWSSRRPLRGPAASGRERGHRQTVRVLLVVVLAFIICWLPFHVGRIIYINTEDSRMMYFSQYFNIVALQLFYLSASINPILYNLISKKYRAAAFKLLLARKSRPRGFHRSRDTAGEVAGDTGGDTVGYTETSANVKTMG
Cytochrome P450 1A2, sequence (P05177 whole entry): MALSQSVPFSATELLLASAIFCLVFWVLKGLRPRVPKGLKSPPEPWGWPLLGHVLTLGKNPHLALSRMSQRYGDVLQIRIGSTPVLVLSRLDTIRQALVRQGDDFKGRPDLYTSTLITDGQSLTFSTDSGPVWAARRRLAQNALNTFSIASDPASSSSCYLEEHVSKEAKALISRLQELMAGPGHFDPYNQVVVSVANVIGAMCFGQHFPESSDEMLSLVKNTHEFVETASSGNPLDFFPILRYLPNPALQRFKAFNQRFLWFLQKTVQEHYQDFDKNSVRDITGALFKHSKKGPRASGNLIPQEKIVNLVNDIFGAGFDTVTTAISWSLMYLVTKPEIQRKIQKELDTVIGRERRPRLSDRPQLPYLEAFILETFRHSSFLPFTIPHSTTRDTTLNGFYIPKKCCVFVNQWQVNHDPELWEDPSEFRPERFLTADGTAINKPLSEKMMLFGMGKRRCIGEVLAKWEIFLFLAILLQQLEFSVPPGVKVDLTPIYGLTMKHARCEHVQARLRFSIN
Thyrotropin receptor, sequence (P16473 whole entry): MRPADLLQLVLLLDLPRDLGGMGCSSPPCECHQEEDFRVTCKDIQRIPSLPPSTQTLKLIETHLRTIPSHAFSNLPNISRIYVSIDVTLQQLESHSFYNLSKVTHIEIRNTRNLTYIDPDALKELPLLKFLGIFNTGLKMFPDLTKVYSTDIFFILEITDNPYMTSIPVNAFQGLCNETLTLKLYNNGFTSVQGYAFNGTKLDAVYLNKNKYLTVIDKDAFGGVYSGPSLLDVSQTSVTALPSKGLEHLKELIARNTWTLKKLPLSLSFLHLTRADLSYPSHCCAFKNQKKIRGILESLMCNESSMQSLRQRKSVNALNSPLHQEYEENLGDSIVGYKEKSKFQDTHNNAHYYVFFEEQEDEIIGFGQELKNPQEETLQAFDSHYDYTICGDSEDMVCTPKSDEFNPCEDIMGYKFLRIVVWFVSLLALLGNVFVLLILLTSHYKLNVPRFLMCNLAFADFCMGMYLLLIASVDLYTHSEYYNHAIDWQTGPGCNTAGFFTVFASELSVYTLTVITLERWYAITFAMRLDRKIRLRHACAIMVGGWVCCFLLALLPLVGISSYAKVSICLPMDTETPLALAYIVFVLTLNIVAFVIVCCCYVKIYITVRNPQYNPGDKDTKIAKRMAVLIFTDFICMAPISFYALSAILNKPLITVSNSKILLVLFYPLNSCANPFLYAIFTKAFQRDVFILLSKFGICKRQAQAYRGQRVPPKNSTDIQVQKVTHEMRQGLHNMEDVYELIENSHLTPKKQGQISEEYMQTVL
Voltage-gated inwardly rectifying potassium channel KCNH2, sequence (Q12809 whole entry): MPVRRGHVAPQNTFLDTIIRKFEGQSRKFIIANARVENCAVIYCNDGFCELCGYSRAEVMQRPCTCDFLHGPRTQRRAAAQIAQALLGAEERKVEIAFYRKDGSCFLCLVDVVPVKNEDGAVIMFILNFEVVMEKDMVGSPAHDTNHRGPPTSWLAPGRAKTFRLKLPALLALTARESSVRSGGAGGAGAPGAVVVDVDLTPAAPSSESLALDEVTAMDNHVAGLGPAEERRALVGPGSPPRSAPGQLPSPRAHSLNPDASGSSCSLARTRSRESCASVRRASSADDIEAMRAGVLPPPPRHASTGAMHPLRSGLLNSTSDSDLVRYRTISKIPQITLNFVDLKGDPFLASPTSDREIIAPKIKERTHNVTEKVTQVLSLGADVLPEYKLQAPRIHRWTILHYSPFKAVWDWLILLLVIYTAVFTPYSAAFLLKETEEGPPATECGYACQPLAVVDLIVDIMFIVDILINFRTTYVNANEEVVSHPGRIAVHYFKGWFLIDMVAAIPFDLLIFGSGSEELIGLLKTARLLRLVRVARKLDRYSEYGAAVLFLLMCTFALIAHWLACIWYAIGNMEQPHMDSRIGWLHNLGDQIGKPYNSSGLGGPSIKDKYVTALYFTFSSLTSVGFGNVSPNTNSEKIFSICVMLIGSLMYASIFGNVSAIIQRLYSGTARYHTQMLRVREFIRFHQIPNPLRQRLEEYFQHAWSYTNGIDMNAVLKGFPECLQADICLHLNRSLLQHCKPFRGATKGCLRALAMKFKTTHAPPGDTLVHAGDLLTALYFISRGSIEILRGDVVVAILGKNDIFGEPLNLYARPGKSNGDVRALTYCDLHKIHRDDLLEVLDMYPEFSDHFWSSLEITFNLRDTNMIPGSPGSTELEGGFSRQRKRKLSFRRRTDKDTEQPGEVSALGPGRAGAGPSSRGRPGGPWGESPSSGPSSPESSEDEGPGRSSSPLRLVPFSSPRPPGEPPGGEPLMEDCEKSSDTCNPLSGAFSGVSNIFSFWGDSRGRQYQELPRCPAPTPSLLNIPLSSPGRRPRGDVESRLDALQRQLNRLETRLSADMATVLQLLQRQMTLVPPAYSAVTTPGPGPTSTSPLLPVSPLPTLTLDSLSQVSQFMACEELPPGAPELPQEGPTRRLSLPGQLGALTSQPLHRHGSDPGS
Lutropin-choriogonadotropic hormone receptor, sequence (P16235 whole entry): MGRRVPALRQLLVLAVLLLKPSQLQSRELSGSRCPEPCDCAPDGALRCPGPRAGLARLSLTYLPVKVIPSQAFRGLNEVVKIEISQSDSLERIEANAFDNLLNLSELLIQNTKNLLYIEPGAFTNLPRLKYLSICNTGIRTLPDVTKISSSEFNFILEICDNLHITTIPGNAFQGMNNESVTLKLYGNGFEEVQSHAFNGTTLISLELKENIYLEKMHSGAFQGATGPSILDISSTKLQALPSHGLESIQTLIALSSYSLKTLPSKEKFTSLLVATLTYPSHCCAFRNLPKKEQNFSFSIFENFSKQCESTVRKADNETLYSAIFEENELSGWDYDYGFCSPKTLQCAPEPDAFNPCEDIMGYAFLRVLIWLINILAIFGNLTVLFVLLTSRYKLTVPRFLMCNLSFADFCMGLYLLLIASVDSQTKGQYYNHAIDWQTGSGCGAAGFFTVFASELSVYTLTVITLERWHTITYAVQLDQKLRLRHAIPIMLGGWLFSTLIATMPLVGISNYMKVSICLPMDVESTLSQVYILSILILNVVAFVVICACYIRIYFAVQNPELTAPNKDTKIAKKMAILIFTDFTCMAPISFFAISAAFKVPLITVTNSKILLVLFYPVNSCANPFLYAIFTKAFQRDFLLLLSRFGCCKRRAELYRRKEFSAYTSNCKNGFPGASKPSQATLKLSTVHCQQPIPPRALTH
Mu-type opioid receptor (Homo sapiens), sequence (P35372 whole entry): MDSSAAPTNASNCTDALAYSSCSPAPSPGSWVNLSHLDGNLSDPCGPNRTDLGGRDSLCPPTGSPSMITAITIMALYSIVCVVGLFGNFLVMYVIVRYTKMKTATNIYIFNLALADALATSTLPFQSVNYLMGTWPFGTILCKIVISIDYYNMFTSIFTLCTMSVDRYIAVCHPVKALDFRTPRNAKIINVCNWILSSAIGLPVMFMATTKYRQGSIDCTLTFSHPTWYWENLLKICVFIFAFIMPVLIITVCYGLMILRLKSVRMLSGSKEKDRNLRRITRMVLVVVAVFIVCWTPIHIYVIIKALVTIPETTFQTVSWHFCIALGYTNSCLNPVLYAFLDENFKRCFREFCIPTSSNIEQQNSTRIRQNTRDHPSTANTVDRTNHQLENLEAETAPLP

Regarding `O=C(Nc1cnc(Oc2ccc(F)cc2)nc1)N1CCc2ncccc2[C@@H]1c1ccc(F)cc1` [BAY-899], the IC50 was 0.046 µM in series [1]; 24 µM at Thyrotropin receptor; 10.6 µM in series [4]; above 20 µM at Cytochrome P450 1A2; above 20 µM against Cytochrome P450 3A4. Also, the chromatographic logD in series [2] came to 2.8. Also, the CLhep predicted at 1 µM in series [3] was 1.67 mL/min/kg. The efflux ratio at 2 h, 2 µM in [5] was 1.1. For the same molecule, the Cmax/dose in series [6] came out at 0.28 kg/L. Besides, the Activity in series [7], in series [8], in series [9], in [10], in series [11] and in series [12] was below 70% each time. The Activity was below 70% in [13], below 70% in [14] and “Non-Toxic” in series [16]. For the same molecule, the concentration at 192 h in [15] was 34 µM.
Consider `O=C(Nc1ccc(Oc2ccc(F)cc2)cc1)N1CCc2ncccc2[C@@H]1c1ccc(Cl)cc1`, for which the IC50 in series [1] was 0.023 µM; at Thyrotropin receptor it was 2.3 µM; in series [4], 3 µM; against Cytochrome P450 1A2, above 20 µM; on Cytochrome P450 3A4 it was above 20 µM. In series [2], this molecule had a chromatographic logD of 4.7. The CLhep predicted at 1 µM in [3] is 3.33 mL/min/kg. In series [5], the efflux ratio at 2 h, 2 µM stood at 1.3. For the same molecule, the Cmax/dose in [6] is recorded as 0.97 kg/L. The Activity in series [7], in series [8], in series [9], in series [10], in series [11] and in series [12] was below 70% throughout. Further, the Activity is below 70% in series [13], below 70% in series [14] and “Non-Toxic” in series [16]. In [15], the concentration at 192 h stood at 7 µM.
